# Measurements as given in ChEMBL document CHEMBL1177668, “(-)-N-Formylanonaine from Michelia alba as a human tyrosinase inhibitor and antioxidant” (Bioorg Med Chem, 2010).
# The source made the active and inactive calls. No cut-off for these calls is given here.
# Tests used:
# [1] = Antioxidant activity assessed as potassium ferric cyanide ion reducing power at 100 uM after 20 mins; assay type: functional
# [2] = system: Radical scavenging activity
# Description: Antioxidant activity assessed as DPPH free radical scavenging activity after 30 mins
# [3] = Cytotoxicity against human keratinocytes assessed as cell viability at 10 uM after 48 hrs by MTT assay; assay type: cell-based; details: keratinocyte
# [4] = target: T1, Tyrosinase (Homo sapiens) (UniProt P14679); experiment: Inhibition of tyrosinase in human HEMn-MP assessed as oxidation of L-DOPA to dopaquinone at 100 uM after 2 days by spectrophotometric analysis
# T1 sequence (whole entry): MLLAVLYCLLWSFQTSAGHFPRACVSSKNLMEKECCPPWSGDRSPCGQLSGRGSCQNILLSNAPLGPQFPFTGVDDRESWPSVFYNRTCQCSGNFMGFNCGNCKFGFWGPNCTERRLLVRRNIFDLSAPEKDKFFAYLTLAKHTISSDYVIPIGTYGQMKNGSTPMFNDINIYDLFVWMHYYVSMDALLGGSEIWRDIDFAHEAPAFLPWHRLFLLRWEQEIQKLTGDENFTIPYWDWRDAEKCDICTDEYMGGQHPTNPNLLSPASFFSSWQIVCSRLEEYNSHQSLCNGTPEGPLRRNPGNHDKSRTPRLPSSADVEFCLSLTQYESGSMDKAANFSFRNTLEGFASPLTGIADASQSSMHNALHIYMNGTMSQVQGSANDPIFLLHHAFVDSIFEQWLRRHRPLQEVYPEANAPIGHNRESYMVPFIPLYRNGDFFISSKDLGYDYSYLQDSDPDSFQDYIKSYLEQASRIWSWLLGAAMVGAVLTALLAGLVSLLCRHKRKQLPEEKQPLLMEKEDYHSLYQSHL
# [5] = Cytotoxicity against human HEMn-MP assessed as cell death at 10 to 200 uM after 2 to 60 hrs by phase contrast microscopic analysis
# [6] = system: Fibroblast; experiment: Cytotoxicity against human fibroblasts assessed as cell viability at 200 uM after 48 hrs by MTT assay; assay type: cell-based
# [7] = Cytotoxicity against human HEMn-MP assessed as cell viability at 0.01 to 10 uM after 48 hrs by MTT assay; details: HEMn-MP cells, read-out: Activity
# [8] = species on record: Homo sapiens; experiment: Induction of dendritic to bipolar morphology changes in human HEMn-MP at 200 uM after 12 to 60 hrs by phase contrast microscopic analysis; assay type: functional
# [9] = Cytotoxicity against human fibroblasts assessed as cell viability at 100 uM after 48 hrs by MTT assay; assay type: cell-based, Fibroblast; details: read-out: Activity
# [10] = system: Fibroblast; experiment: Cytotoxicity against human fibroblasts assessed as cell viability at 10 uM after 48 hrs by MTT assay; assay type: cell-based
# [11] = Cytotoxicity against human fibroblasts after 48 hrs by MTT assay; assay type: cell-based, Fibroblast
# [12] = species on record: Homo sapiens; experiment: Induction of dendritic to bipolar morphology changes in human HEMn-MP at 100 uM after 48 hrs by phase contrast microscopic analysis; assay type: functional
# [13] = target: T2, Tyrosinase (Agaricus bisporus, UniProt O42713)
# T2 sequence (O42713 whole entry): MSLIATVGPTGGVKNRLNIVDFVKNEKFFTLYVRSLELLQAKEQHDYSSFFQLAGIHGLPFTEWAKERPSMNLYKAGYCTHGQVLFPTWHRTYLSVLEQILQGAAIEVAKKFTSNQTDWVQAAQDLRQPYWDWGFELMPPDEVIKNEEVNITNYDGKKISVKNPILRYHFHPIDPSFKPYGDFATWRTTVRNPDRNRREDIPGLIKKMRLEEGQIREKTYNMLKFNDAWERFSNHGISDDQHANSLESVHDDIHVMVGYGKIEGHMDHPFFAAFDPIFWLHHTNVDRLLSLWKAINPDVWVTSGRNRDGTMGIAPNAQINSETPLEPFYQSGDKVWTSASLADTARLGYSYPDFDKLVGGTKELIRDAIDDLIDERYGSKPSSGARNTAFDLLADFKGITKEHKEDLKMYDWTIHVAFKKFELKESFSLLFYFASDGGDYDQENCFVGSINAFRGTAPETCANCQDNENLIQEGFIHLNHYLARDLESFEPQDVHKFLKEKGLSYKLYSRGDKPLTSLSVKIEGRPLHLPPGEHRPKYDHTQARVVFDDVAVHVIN
# Description: Inhibition of mushroom tyrosinase after 30 mins by spectrophotometric analysis
# [14] = species on record: Homo sapiens; experiment: Reduction of melanin production in human HEMn-MP at 10 uM after 12 to 60 hrs by phase contrast microscopic analysis; assay type: functional
# [15] = species on record: Homo sapiens; experiment: Reduction of melanin production in human HEMn-MP at 200 uM after 12 to 60 hrs by phase contrast microscopic analysis; assay type: functional
# [16] = Cytotoxicity against human HEMn-MP after 48 hrs by MTT assay; details: HEMn-MP cells
# [17] = species on record: Homo sapiens; experiment: Induction of dendritic to bipolar morphology changes in human HEMn-MP at 10 uM after 12 to 60 hrs by phase contrast microscopic analysis; assay type: functional
# [18] = Cytotoxicity against human HEMn-MP assessed as cell viability at 200 uM after 48 hrs by MTT assay
# [19] = Cytotoxicity against human keratinocytes after 48 hrs by MTT assay; assay type: cell-based, Keratinocyte
# [20] = target: T3, Tyrosinase (Homo sapiens, UniProt P14679); experiment: Inhibition of tyrosinase in human HEMn-MP assessed as reduction of melanin level after 2 days by spectrophotometric analysis
# T3 sequence (P14679 whole entry): T1 sequence (whole entry)
# [21] = Cytotoxicity against human HEMn-MP assessed as cell death at 100 uM after 48 hrs by MTT assay
smiles,measurement,setting,value
COc1ccc(O)c(C(C)(C)C)c1.COc1ccc(O)cc1C(C)(C)C,OD,[1],1.28
O=C1O[C@H]([C@@H](O)CO)C(O)=C1O [ASCORBIC ACID],IC50,[2],52.1 µM
O=CN1CCc2cc3c(c4c2[C@H]1Cc1ccccc1-4)OCO3,Activity,[3],Non-toxic
same,Activity,[4],Active
same,Activity,[5],Non-toxic
same,Activity,[6],Non-toxic
same,IC50,[2],121 µM
same,"viability at 48 h, 10 µM",[7],90%
same,OD,[1],0.56
same,Activity,[8],Active
same,"viability at 48 h, 100 µM",[9],70%
same,Activity,[10],Non-toxic
same,CC50 at 48 h,[11],325 µM
same,Activity,[12],Active
same,IC50,[13],74.3 µM
same,Activity,[14],Active
same,Activity,[15],Active
same,CC50 at 48 h,[16],735 µM
same,Activity,[17],Active
same,Activity,[18],Toxic
same,CC50 at 48 h,[19],355 µM
same,EC50,[20],90 µM
same,Activity,[21],Toxic
